Results: US9994886B2, “Modified Epstein-Barr virus DNA polymerase and methods for isothermal DNA amplification” (priority 2013, dated 2018)

Legend:
oligo dG:poly dC = assay: Activity on synthetic primer:template, GC preference; assay type: biochemical
From the text: EBVpol and the modified EBVpol of this invention have strong amplification activity on GC-rich regions of DNA sequences; EBV DNA polymerase has 29-fold greater activity on synthetic oligo dG:poly dC (primer:template) compared to oligo dA:poly dT. GC-rich DNA sequences are the most difficult-to-amplify DNA sequences. […] Thus, the GC-preference of EBVpol and its variants makes EBVpol and its variants preferred reagents for whole genome amplification (“WGA”).

[1] = system: singly-primed M13mp18 single-stranded DNA circle; conditions: cited from earlier work
[2] = BALF5 combined with BMRF1; cited from earlier work
GST-BMRF1(1-303) = molecular target: T1, GST-BMRF1(1-303) (Epstein-Barr virus, UniProt P03191); assay: Binding of radiolabeled BALF5-deletion polypeptides to GST-BMRF1(1-303); conditions: 100 mM ammonium sulfate; [35S]-methionine labeled in vitro translated polypeptides
T1 construct: A GST fusion with BMRF1 residues 1-303 was constructed and expressed in E. coli BL21*DE3; made in house; host or cells: E. coli BL21*DE3
T1 sequence (P03191 1-303): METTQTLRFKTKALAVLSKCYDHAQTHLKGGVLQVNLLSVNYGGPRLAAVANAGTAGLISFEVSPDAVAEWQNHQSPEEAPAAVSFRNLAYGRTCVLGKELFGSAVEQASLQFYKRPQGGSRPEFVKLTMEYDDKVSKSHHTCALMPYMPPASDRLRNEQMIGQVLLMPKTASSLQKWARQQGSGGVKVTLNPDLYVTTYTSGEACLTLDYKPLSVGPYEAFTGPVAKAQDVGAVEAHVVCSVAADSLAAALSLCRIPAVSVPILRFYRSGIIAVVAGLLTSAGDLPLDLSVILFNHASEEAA
Method: (§1) To determine if the extreme carboxyl terminus of the EBV BALF5 subunit is necessary for functional interaction with BMRF1, a series of deletions of the BALF5 open reading frame was constructed in the pYES-X2 vector and [^35S]-methionine labeled polypeptides were expressed by in vitro transcription-translation as described (Kiehl, A. and D. I. Dorsky, J Virol, 1995, 69(3): p. 1669-77). These radiolabeled BALF5-deletion polypeptides were then assayed for binding to GST-BMRF1(1-303) in 100 mM ammonium sulfate. In vitro translated BALF5 bound to GST-BMRF1(1-303) but not to GST alone.

[3] = system: activated calf thymus (CT) DNA; assay: DNA polymerase elongation activity of purified BALF5 on activated calf thymus DNA; assay type: biochemical
Method: (§2) When assayed in the presence of BMRF1, its activity on CT DNA at 100 mM ammonium sulfate was greater than 100-fold increased over its activity alone, in the absence of salt.

[4] = system: activated calf thymus DNA; assay: DNA polymerase assay, incorporation of [32P]-dCMP into trichloroacetic acid-precipitable material; assay type: biochemical; conditions: 100 mM ammonium sulfate; polypeptides in equimolar ratios
Method: The activity of the bacterially-expressed purified BMRF1(1-303)(“ΔC303”) polypeptide was examined in a DNA polymerase assay which measured incorporation of [^32P]-α-dCMP into trichloroacetic acid-precipitable material using activated calf thymus DNA and [^32P]-α-dCTP as the substrates in the presence of 100 mM ammonium sulfate (Tsurumi, T., T. Daikoku, and Y. Nishiyama, J Virol, 1994, 68(5): p. 3354-63). The BALF5 catalytic DNA polymerase subunit was obtained by expression in insect cells from the Ac-BALF5 baculovirus and purified by phosphocellulose and heparin affinity chromatography. The polypeptides were assayed in equimolar ratios and the specific activity (micromoles of dCMP incorporation per milligram of protein per hour) is shown in Table 3.
The GST-BMRF1 (1-303) polypeptide was bound to glutathione-agarose as described previously and cleaved overnight with 1/50 (w/w) factor Xa (NEBioLabs, Ipswich, Mass.) in 1 mM CaCl2. The cleaved BMRF1 (1-303) was then purified on DNA-cellulose, eluting at 300-500 mM NaCl. SDS-PAGE analysis confirmed the size of the uncleaved GST-BMRF1 (1-303) and the purified cleaved BMRF1 (1-303). The purified BMRF1 (1-303) was then shown to stimulate purified baculovirus-expressed BALF5 in 100 mM ammonium sulfate (see Table 3).

GST = molecular target: T2, GST (Schistosoma japonicum, UniProt P08515); assay: Non-specific binding of in vitro translated BALF5 to GST
T2 construct: made in house; host or cells: E. coli (bacterial extract)
Method: as §1
A GST fusion with BMRF1 residues 1-303 was constructed and expressed in E. coli BL21*DE3 as a soluble 58 kDa protein which bound specifically to glutathione-agarose. Glutathione agarose beads were incubated in bacterial extract containing either 27 kDa wild-type GST or 58 kDa GST-BMRF1 and extensively washed in PBS, or 50 mM Tris-HCl, pH 8.0 containing 0, 50, 100, 150, or 200 mM ammonium sulfate. The beads were then incubated in the same wash buffers in the presence of [^35S]-methionine labeled in vitro translated BALF5, and then the beads were washed extensively at the same salt concentrations as the incubations. The washed beads were boiled in SDS sample buffer and the eluted proteins were analyzed by SDS-PAGE/fluorography. […]

GST-BMRF1 fusion = molecular target: T3, GST-BMRF1 fusion (Epstein-Barr virus, UniProt P03191); assay: GST-BMRF1 fusion binding to BALF5 on glutathione agarose beads at varied salt
T3 construct: A GST fusion with BMRF1 residues 1-303 was constructed and expressed in E. coli BL21*DE3; made in house; host or cells: E. coli BL21*DE3
T3 sequence (P03191 1-303): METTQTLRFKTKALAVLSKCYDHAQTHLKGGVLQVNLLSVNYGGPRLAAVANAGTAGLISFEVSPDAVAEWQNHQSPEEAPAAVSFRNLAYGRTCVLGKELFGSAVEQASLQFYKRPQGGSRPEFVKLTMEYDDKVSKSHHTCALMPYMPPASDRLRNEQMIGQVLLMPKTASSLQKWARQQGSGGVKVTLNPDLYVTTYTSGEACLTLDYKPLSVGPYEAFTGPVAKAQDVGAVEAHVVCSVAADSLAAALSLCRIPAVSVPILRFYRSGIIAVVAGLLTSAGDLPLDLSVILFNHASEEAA
Method: A GST fusion with BMRF1 residues 1-303 was constructed and expressed in E. coli BL21*DE3 as a soluble 58 kDa protein which bound specifically to glutathione-agarose. Glutathione agarose beads were incubated in bacterial extract containing either 27 kDa wild-type GST or 58 kDa GST-BMRF1 and extensively washed in PBS, or 50 mM Tris-HCl, pH 8.0 containing 0, 50, 100, 150, or 200 mM ammonium sulfate. The beads were then incubated in the same wash buffers in the presence of [^35S]-methionine labeled in vitro translated BALF5, and then the beads were washed extensively at the same salt concentrations as the incubations. The washed beads were boiled in SDS sample buffer and the eluted proteins were analyzed by SDS-PAGE/fluorography. Measures taken to avoid the copurification of nucleic acids included washing the column at 600 mM NaCl and application of DNase to the column. And SDS-PAGE analysis was used to monitor GST-BMRF1 (1-303). […] Non-specific binding of BALF5 to the 27 kDa GST was very weak and independent of salt concentration.

EBVpol = molecular target: T4, EBVpol (Epstein-Barr virus, UniProt P03198); assay: Inhibition of EBVpol activity at high salt; assay type: biochemical; conditions: 20 mM PAA
T4 construct: Ac-BALF5 baculovirus vector, an expression plasmid vector bearing the full-length BALF5 gene; made in house; host or cells: Sf9 insect cells, recombinant baculoviruses pAc-BALF5 and pAc-BMRF1
Method: as §2

T2 sequence (P08515 whole entry): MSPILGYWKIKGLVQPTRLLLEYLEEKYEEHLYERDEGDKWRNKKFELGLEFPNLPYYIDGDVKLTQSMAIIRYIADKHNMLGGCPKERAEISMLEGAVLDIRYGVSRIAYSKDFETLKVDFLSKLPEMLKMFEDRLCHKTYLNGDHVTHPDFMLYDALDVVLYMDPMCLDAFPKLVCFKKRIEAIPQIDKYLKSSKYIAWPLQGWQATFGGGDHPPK
T4 sequence (P03191 whole entry): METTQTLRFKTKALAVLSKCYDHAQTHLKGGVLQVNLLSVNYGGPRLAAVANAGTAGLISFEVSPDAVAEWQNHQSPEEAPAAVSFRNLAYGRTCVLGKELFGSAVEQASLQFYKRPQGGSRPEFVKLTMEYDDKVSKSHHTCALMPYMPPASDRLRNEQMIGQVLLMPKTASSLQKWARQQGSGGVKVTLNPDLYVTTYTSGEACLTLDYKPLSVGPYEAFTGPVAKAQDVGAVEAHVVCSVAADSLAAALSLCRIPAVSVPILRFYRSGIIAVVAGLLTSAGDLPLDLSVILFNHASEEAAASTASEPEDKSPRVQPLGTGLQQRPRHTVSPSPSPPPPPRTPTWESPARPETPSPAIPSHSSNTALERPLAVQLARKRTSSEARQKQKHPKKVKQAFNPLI
T4 sequence (P03198 whole entry, added parts left off): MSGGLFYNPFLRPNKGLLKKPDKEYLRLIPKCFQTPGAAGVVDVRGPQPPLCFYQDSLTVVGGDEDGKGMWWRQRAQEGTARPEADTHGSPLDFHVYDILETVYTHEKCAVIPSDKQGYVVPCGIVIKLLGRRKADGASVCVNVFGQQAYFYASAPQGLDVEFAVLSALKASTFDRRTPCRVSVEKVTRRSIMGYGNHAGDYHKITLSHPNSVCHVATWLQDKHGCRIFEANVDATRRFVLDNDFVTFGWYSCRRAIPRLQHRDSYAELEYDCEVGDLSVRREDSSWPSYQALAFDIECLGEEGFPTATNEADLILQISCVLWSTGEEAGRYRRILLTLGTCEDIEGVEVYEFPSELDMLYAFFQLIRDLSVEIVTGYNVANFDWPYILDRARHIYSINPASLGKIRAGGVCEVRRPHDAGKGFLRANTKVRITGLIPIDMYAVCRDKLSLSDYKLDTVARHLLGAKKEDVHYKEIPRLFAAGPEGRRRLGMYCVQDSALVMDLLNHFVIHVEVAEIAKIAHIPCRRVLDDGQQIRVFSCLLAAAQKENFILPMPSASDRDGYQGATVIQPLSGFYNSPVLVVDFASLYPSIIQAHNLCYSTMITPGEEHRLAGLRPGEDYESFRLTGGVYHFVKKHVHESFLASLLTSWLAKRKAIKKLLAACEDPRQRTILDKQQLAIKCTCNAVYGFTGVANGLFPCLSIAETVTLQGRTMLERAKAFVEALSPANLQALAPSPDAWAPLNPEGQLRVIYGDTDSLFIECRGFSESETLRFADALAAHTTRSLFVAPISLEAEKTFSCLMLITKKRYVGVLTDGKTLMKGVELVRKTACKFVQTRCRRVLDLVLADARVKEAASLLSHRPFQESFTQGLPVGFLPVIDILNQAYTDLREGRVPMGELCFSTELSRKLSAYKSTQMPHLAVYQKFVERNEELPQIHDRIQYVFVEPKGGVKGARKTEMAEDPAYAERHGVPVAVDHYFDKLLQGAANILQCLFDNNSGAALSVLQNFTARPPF

Molecule: EBV DNA polymerase holoenzyme: 1:1 complex of BALF5 catalytic subunit and BMRF1 processivity factor
- activity on oligo dG:poly dC compared to oligo dA:poly dT (oligo dG:poly dC): 29 fold
- strand-displacement activity (SDA) [1]: possesses signification SDA
- rate of incorporation ([1]; singly-primed M13mp18 single-stranded DNA circle): approximately 7200 nucleotides in 10 minutes
- ionic strength optimum of processive primer-dependent DNA synthesis [2]: 150 mM ammonium sulfate

Molecule: BALF5: 116-kDa catalytic subunit of EBV DNA polymerase with intrinsic 3′-5′ exonuclease activity, SEQ ID NO. 8
- binding to GST-BMRF1(1-303) (GST-BMRF1(1-303)): bound
- DNA polymerase elongation activity on activated CT DNA ([3]; 100 mM ammonium sulfate, BALF5 alone): completely inactive
- increase of activity on CT DNA over its activity alone in the absence of salt ([3]; in the presence of BMRF1, 100 mM ammonium sulfate): greater than 100 fold
- DNA polymerase elongation activity on activated CT DNA ([3]; low ionic strength): significant DNA polymerase elongation activity
- Specific Activity [4]: 1.7 micromoles of dCMP incorporation per milligram of protein per hour
- binding to GST alone (GST): very weak
- binding to the GST-BMRF1 fusion (GST-BMRF1 fusion; 0 and 200 mM ammonium sulfate): bind poorly
- binding to the GST-BMRF1 fusion (GST-BMRF1 fusion; PBS and 50-150 mM ammonium sulfate): bound efficiently

Molecule: O=C(O)CP(=O)(O)O [PAA, phosphonoacetic acid]
- inhibition at 20000 µM (EBVpol): 60%

B1: ΔC303: BMRF1 with deletion of the C-terminal 101 amino acids (residues 1-303) (protein)
chain: METTQTLRFKTKALAVLSKCYDHAQTHLKGGVLQVNLLSVNYGGPRLAAVANAGTAGLISFEVSPDAVAEWQNHQSPEEAPAAVSFRNLAYGRTCVLGKELFGSAVEQASLQFYKRPQGGSRPEFVKLTMEYDDKVSKSHHTCALMPYMPPASDRLRNEQMIGQVLLMPKTASSLQKWARQQGSGGVKVTLNPDLYVTTYTSGEACLTLDYKPLSVGPYEAFTGPVAKAQDVGAVEAHVVCSVAADSLAAALSLCRIPAVSVPILRFYRSGIIAVVAGLLTSAGDLPLDLSVILFNHASEEAA
- Specific Activity [4]: 0.2 micromoles of dCMP incorporation per milligram of protein per hour
